This data set deals with Human serum albumin (HSA) (Homo sapiens, UniProt P02768). Briefly: HSA-Binding Assay (equilibrium dialysis, LC-MS/MS). The following applies: isolated protein. On the procedure: Equilibrium dialysis was performed in a 24-well BD Gentest Serum Binding System (BD Biosciences, Woburn, Mass.). Human serum albumin (HSA) at 0.6 mM was prepared by dissolving in phosphate buffered saline (PBS: 4.01 mL 1 M K2HPO4+0.99 mL 1 M KH2PO4+1.37 mL 5 M NaCl+43.63 mL water). After washing and soaking the 24-well BD Gentest Serum Binding System with water, 30% ethanol, and PBS, 750 μL of HSA and 250 μL of PBS were dispensed into each donor and receiver well, respectively. 3.75 μL of 1 mM test compound or wafarin (as control) was spiked into HSA in each donor well. The duplicate incubations were performed at 37° C. for 20 hrs.
After incubation, HSA and buffer samples collected from donor and receiver wells, together with calibration standard samples, were prepared in 96-well plates as shown in Table 2.
The plates were then capped, vortexed, and centrifuged at 3500 rpm for 10 minutes. The supernatant was injected into LC-MS/MS. Sample analysis was performed on an LC/MS/MS system composed of Shimadzu Prominence pumps, SIL-20ACHT autosampler, and Applied Biosystems/MDS Sciex API 3200.

The fraction unbound is the share of the substance not bound to proteins or other matrix. The low end stands for extensive binding, the high end for weak binding. As for `CCCCCCCCCCCCCCCCC(NC(=O)CCC(=O)O[C@]1(CC)C(=O)OCc2c1cc1n(c2=O)Cc2c-1nc1ccc(O)cc1c2CC)C(=O)O` (stereo partly drawn) [FL-003], the fraction unbound at 20 h, 5 μM was less than 0.001.
`CCCCCCC(NC(=O)CCC(=O)Oc1ccc2nc3c(c(CC)c2c1)Cn1c-3cc2c(c1=O)COC(=O)[C@@]2(CC)OC(=O)CCC(=O)NC(CCCCCC)C(=O)O)C(=O)O` (stereo partly drawn) [FL-037] yielded a fraction unbound at 20 h, 5 μM of less than 0.023.
As for `CCCCC(NC(=O)CCC(=O)Oc1ccc2nc3c(c(CC)c2c1)Cn1c-3cc2c(c1=O)COC(=O)[C@@]2(CC)OC(=O)CCC(=O)NC(CCCC)C(=O)O)C(=O)O` (stereo partly drawn) [FL-038], the fraction unbound at 20 h, 5 μM is less than 0.168.
In the case of `CCCCC(NC(=O)CCC(=O)O[C@]1(CC)C(=O)OCc2c1cc1n(c2=O)Cc2c-1nc1ccc(O)cc1c2CC)C(=O)O` (stereo partly drawn) [FL-040], the fraction unbound at 20 h, 5 μM was 0.016.
Turning to `CCc1c2c(nc3ccc(OC(=O)CCC(=O)N[C@@H](CC(C)C)C(=O)O)cc13)-c1cc3c(c(=O)n1C2)COC(=O)[C@@]3(CC)OC(=O)CCC(=O)N[C@@H](CC(C)C)C(=O)O` [FL-041], the fraction unbound at 20 h, 5 μM is less than 0.022.
As for `CCc1c2c(nc3ccc(O)cc13)-c1cc3c(c(=O)n1C2)COC(=O)[C@@]3(CC)OC(=O)CCC(=O)N[C@@H](CC(C)C)C(=O)O` [FL-043], the figure is 0.03.

The record behind these values is patent publication US9962452B2, “Soluble complexes of drug analogs and albumin” (Zhuhai Beihai Biotech Co., Ltd., priority 2013, dated 2018).
